“And” between values parts separate entries of the source, which are not always exact repeats. Equal values may be shown once.
Key:
[1] = system: relapsed and/or refractory CD19+ B-ALL; format: in vivo, human
[2] = system: relapsed and/or refractory CD19+ NHL; conditions: human, in vivo

Compound	Odds Ratio (95% CI) for MRD-negative CR ([1]; univariate, fludarabine added to cyclophosphamide-based lymphodepletion (Y))	HR (95% CI) for PFS [2]	HR for PFS [2]	Estimate, univariate association with Disease-Free Survival ([1]; human, in vivo)	Estimate, univariate association with Overall Survival ([1]; human, in vivo)	Exp (Coef) = hazard ratio for DFS ([1]; human, in vivo)	Exp (−Coef) for DFS ([1]; human, in vivo)	Hazard Ratio (95% CI) for DFS ([1]; human, in vivo)
Nc1nc(F)nc2c1ncn2[C@@H]1O[C@H](CO)[C@@H](O)[C@@H]1O [Fludarabine, fludarabine]	0.50 (0.03-3.31)							
cyclophosphamide and fludarabine [Cy/Flu]		1.92 (0.99-3.72)	4.266	0.2967	0.4349	0.2490	4.0154	0.2777 (0.1095-0.7042) and 0.2794 (0.1109-0.7042)

Source: patent publication US20210223248A1 (priority 2018, published 2021)
